Source: ChEMBL document CHEMBL3045184, “3D-QSAR studies of natural flavonoid compounds as reverse transcriptase inhibitors” (Med Chem Res, 2012)

Molecular target: T1, Avian myoblastosis virus polyprotein II (Avian myeloblastosis virus) (UniProt Q86831)
T1 sequence (whole entry): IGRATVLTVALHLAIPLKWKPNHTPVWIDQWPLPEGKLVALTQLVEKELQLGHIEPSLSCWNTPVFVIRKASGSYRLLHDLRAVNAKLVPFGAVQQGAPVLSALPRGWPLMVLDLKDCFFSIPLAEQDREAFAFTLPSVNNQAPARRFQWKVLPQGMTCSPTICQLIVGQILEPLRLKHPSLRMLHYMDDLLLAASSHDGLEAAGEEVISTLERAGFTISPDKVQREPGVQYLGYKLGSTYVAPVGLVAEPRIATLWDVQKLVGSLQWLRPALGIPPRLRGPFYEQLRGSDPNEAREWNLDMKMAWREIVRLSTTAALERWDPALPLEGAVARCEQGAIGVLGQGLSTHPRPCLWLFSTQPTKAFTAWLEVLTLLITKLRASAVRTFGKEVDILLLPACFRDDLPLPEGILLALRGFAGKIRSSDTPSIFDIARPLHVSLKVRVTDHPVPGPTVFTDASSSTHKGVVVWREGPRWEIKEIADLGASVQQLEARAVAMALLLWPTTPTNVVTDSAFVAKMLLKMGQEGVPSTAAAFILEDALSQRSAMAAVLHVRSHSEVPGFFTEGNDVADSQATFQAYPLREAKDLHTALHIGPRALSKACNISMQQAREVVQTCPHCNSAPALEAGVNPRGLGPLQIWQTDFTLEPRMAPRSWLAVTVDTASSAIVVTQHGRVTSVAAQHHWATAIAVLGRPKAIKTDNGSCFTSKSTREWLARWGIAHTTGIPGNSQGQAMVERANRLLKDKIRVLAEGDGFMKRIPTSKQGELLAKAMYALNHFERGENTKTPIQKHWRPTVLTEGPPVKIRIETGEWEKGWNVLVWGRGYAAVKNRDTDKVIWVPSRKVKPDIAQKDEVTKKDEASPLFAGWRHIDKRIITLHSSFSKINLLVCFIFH
Assay: Inhibition of Avian myeloblastosis virus reverse transcriptase
Set-up: concentration or dose not given beside the values
Conditions: concentration not given here

| SMILES | inhibition |
| --- | --- |
| O=c1c(O)c(-c2ccc(O)c(O)c2)oc2cc(O)cc(O)c12 | 41.4% |
| O=c1c(O)c(-c2cc(O)c(O)c(O)c2)oc2cc(O)cc(O)c12 | 82.5% |
| CC(C)Oc1ccc(-c2cc(=O)c3c(O)cc(OC(C)C)cc3o2)cc1 | 23.6% |
| O=c1cc(-c2ccc(O)cc2)oc2c(O)c(O)cc(O)c12 | 22% |
| O=c1c(O)c(-c2ccccc2O)oc2cc(O)cc(O)c12 | 28% |
| COc1cc2oc(-c3ccc(O)cc3)cc(=O)c2c(O)c1OC | 50.9% |
| COc1cccc(O)c1-c1cc(=O)c2c(O)c(OC)c(OC)c(OC)c2o1 | 18% |
| COc1ccc(-c2cc(=O)c3ccc(O)cc3o2)cc1 | 13.6% |
| CC(C)Oc1ccc(-c2cc(=O)c3c(O)cc(O)cc3o2)cc1OC(C)C | 12.2% |
| O=c1c(O)c(-c2ccc(O)cc2O)oc2cc(O)cc(O)c12 | 40.5% |
| O=c1cc(-c2ccc(O)c(O)c2)oc2c(O)c(O)cc(O)c12 | 31.3% |
| COc1cc(O)c2c(=O)c(OC)c(-c3ccc(OC)c(OC)c3)oc2c1 | 9.2% |
| O=c1c(O)c(-c2ccc(O)cc2)oc2cc(O)c(O)c(O)c12 | 97.2% |
| COc1c(OC(C)C)cc(O)c2c(=O)cc(-c3ccc(O)cc3)oc12 | 15.4% |
| O=c1cc(-c2ccccc2)oc2cc(O)c(O)c(O)c12 | 95% |
| COc1cc2oc(-c3ccccc3)cc(=O)c2c(OC)c1OC | 29.8% |
| COc1c(O)cc2oc(-c3ccc(O)cc3)cc(=O)c2c1O | 23.3% |
| O=c1cc(-c2ccccc2)oc2c(O)c(O)cc(O)c12 | 36.9% |
| COc1cc(O)c2c(=O)cc(-c3ccccc3OC(C)=O)oc2c1OC | 17% |
| COc1ccc(-c2cc(=O)c3c(OC)cc(OC)cc3o2)cc1 | 45.6% |
| COc1c(OC(C)=O)cc2oc(-c3ccccc3)cc(=O)c2c1O | 18.3% |
| COc1ccc(-c2cc(=O)c3c(O)cc(OC)cc3o2)cc1 | 54.8% |
| CC(C)Oc1cc(OC(C)C)c2c(=O)cc(-c3ccccc3)oc2c1 | 24.2% |
| COc1c(O)cc(O)c2c(=O)cc(-c3ccccc3)oc12 | 36.8% |
| COc1cc(-c2oc3cc(O)ccc3c(=O)c2O)ccc1O | 52.7% |
| COc1ccc(-c2cc(=O)c3c(O)c(O)c(OC)c(O)c3o2)cc1 | 39.1% |
| O=c1cc(-c2ccc(O)cc2)oc2cc(O)c(O)c(O)c12 | 99.4% |
| O=c1c(O)c(-c2ccc(O)cc2)oc2cc(O)cc(O)c12 | 72.6% |

| SMILES | inhibition |
| --- | --- |
| COc1ccc(-c2cc(=O)c3c(O)cc(O)cc3o2)cc1 | 48% |
| O=c1cc(-c2ccc(O)c(O)c2)oc2cc(O)c(O)c(O)c12 | 91.7% |
| O=c1c(O)c(-c2cc(O)c(O)c(O)c2)oc2cc(O)ccc12 | 87.5% |
| COc1cc2oc(-c3ccccc3)cc(=O)c2c(O)c1OC | 45.9% |
| CC(C)Oc1ccc(-c2cc(=O)c3c(O)c(O)c(OC(C)C)cc3o2)cc1 | 18% |
| COc1cccc(OC)c1-c1cc(=O)c2c(O)c(OC)c(OC)c(OC)c2o1 | 5.4% |
| CC(C)Oc1ccc(-c2cc(=O)c3c(O)cc(O)cc3o2)cc1 | 55.4% |
| O=c1cc(-c2ccccc2)oc2cc(OCc3ccccc3)cc(O)c12 | 34.9% |
| COc1c(O)cc2oc(-c3ccccc3)cc(=O)c2c1OC | 32.7% |
| O=c1c(O)c(-c2ccc(O)c(O)c2)oc2cc(O)c(O)c(O)c12 | 98.4% |
| CC(C)Oc1ccc(-c2cc(=O)c3c(O)c(O)c(OC(C)C)c(O)c3o2)cc1 | 46.2% |
| COc1ccc(-c2oc3cc(O)cc(O)c3c(=O)c2O)cc1O | 59.7% |
| COc1c(O)cc(O)c2c(=O)cc(-c3ccccc3O)oc12 | 8.5% |
| O=c1cc(-c2ccccc2)oc2c(O)c(OCc3ccccc3)cc(O)c12 | 19% |
| O=c1cc(-c2ccccc2O)oc2c(O)c(O)cc(O)c12 | 67.7% |
| CC(=O)Oc1ccc(-c2cc(=O)c3c(OC(C)=O)cc(OC(C)=O)cc3o2)cc1 | 24.7% |
| COc1cc2oc(-c3ccc(O)c(O)c3)cc(=O)c2c(O)c1O | 91.4% |
| CC(C)Oc1ccc(-c2cc(=O)c3c(O)cc(O)c(O)c3o2)cc1OC(C)C | 17.6% |
| CC(=O)Oc1cc2oc(-c3ccccc3)cc(=O)c2c(OC(C)=O)c1OC(C)=O | 71.4% |
| COc1cc(O)c2c(=O)c(O)c(-c3ccc(O)c(O)c3)oc2c1 | 50.8% |
| COc1cc(O)c2c(=O)cc(-c3ccccc3)oc2c1OC | 9.8% |
| COc1cc(O)c2c(=O)c(O)c(-c3ccc(OC)c(O)c3)oc2c1 | 68.1% |
| O=c1c(O)c(-c2ccc(O)c(O)c2)oc2c(O)c(O)cc(O)c12 | 85.1% |
| COc1ccc(-c2oc3cc(O)cc(O)c3c(=O)c2O)cc1 | 64.6% |
| O=c1c(O)c(-c2ccccc2)oc2cc(O)cc(O)c12 | 42.1% |
| O=c1c(O)c(-c2c(O)cccc2O)oc2cc(O)cc(O)c12 | 21.3% |
| COc1ccc(-c2cc(=O)c3c(O)cc(OC(C)C)c(OC)c3o2)cc1 | 12% |
